Assay results as given in US6432922B1 (Corvas International, Inc., priority 1998, dated 2002).
Where two headings read alike, the source gives them in different places. Starred links: 1 amine or outer side, 2 acyl side, 3 side chain; linkers in the order of their positions; H or OH if unused. Non-standard residues stand in square brackets, D forms with d. Residues, ends and D or L forms follow the SMILES beside them. *: point of attachment. d(aThr) = C[C@@H](O)[C@@H](N)C(=O)O; Hydrocinnamoyl = O=C(CCc1ccccc1)*; AllylGly = C=CC[C@H](N)C(=O)O; d(hSer) = N[C@H](CCO)C(=O)O; ΔPro = O=C(O)[C@@H]1C=CCN1; Pra = C#CC[C@H](N)C(=O)O; dDap = NC[C@@H](N)C(=O)O; Cbz = O=C(OCc1ccccc1)*; CO = O=C([*:1])[*:2]; NHBn = c1ccc(CN*)cc1

Columns and labels:
Human rt-PA (Activase) = target: T1, Human rt-PA (Activase) (Homo sapiens, UniProt P00750); assay: Recombinant tissue plasminogen activator (rt-PA) chromogenic assay; format: biochemical; conditions: 30 minute preincubation, HBSA buffer; read-out: tPA IC50
T1 construct: purchased Genentech Inc
T1 sequence (P00750 36-562): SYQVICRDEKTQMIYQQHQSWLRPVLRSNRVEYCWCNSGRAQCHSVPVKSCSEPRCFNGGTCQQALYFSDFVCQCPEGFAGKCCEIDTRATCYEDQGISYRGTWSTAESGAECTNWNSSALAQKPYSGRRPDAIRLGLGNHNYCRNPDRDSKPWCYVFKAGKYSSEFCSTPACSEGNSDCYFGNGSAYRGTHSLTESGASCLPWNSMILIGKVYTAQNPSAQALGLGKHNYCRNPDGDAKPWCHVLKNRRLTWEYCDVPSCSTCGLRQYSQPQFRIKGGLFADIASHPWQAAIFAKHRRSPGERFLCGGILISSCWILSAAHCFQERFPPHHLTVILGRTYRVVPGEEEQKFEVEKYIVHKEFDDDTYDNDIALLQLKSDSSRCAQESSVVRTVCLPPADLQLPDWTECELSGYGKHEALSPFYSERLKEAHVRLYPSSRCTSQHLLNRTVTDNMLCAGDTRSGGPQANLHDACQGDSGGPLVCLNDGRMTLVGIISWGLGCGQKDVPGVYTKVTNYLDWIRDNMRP
Experimental: rt-PA catalytic activity was determined using the substrate, Pefachrome t-PA (CH3SO2-D-hexahydrotyrosine-glycyl-L-arginine-p-nitroaniline, obtained from Pentap harm Ltd.). The substrate was made up in deionized water followed by dilution in HBSA prior to the assay in which the final concentration was 500 micromolar (about 3-times Km). Human rt-PA (Activase®) was obtained from Genentech Inc. The enzyme was reconstituted in deionized water and diluted into HBSA prior to the assay in which the final concentration was 1.0 nM.

human plasmin = target: T2, human plasmin (Homo sapiens, UniProt P00747); assay: Plasmin chromogenic substrate (S-2366) assay; format: biochemical; conditions: 30 minute preincubation, HBSA buffer
T2 construct: purchased Enzyme Research Laboratories, Inc
T2 sequence (P00747 581-810 limits assumed): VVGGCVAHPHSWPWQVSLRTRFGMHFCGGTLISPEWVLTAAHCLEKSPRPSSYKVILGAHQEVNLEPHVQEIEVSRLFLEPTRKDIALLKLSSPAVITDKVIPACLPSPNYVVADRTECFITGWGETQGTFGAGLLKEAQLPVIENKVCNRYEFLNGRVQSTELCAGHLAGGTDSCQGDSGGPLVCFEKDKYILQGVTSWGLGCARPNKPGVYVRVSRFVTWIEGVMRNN
T2 sequence (P00747 97-580 partner limits assumed): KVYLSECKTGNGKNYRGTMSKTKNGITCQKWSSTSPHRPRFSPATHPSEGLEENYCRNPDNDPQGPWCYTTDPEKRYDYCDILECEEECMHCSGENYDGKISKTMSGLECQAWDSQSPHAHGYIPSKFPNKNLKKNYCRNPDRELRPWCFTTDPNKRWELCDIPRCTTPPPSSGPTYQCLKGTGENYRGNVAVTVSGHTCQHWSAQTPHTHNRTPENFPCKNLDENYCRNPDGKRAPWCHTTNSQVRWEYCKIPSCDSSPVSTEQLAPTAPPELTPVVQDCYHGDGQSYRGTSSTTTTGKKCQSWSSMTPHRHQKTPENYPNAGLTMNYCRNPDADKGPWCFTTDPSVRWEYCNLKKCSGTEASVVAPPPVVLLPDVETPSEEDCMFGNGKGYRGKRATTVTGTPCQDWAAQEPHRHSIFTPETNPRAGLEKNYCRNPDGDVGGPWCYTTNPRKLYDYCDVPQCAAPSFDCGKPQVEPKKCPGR
Experimental: The substrate was made up in deionized water followed by dilution in HBSA prior to the assay in which the final concentration was 300 micromolar (about 2.5-times Km). Purified human plasmin was obtained from Enzyme Research Laboratories, Inc. The enzyme was diluted into HBSA prior to assay in which the final concentration was 1.0 nM.

[1] = system: bFGF-induced angiogenesis on the CAM of chick embryos; assay: Chicken CAM model of bFGF-induced angiogenesis; format: in vivo; conditions: for Angiogenic Index / # of Blood Vessel Branch Points: bFGF; for Angiogenic Index: difference in branch points vs untreated control embryos; for # of Blood Vessel Branch Points: single administration
Text: A test compound can either be added to the filter disc that contains the angiogenesis inducer, be placed directly on the membrane or be administered systemically. The extent of new blood vessel formation in the presence and/or absence of test compound can be compared using this model. The formation of fewer new blood vessels in the presence of a test compound would be indicative of anti-angiogenesis activity.
The chicken CAM (chick embryo chorioallantoic membrane) model, a standard angiogenesis assay, was used to evaluate the ability of Compound 1 to inhibit angiogenesis. This model is an established model for evaluation of activity of a test compound to affect formulation of new blood vessels.
A filter disc saturated with a 0.5 μg/ml solution of basic fibroblast growth factor (bFGF) was placed on the CAM of 10 day old chick embryos to induce angiogenesis. Twenty four hours later, 0 to 1 μg of Compound 1, in a total volume of 100 μl of sterile PBS, was injected intravenously into the embryo. Approximately 48 hours later, the embryos were sacrificed and the filter discs and surrounding CAM tissue were excised for analysis. Angiogenesis was quantitated by counting the number of blood vessel branch points within the confined region of the filter [Brooks, P.C., et al, Methods in Molecular Biology 120:257-269 (1999)]. The angiogenic index is defined as the difference in the number of blood vessel branch points between an experimental group and the untreated, control embryos. Each experimental group contained 8 to 10 chicken embryos. A single administration of 1 μg of Compound 1 inhibited angiogenesis by 92% in this experiment.

[2] = system: human fibrosarcoma cells (HT 1080); assay: Growth of human HT1080 tumor cells in chick embryo model; format: in vivo, chicken; conditions: for Tumor wet weight: 7 days incubation
Experimental: A chicken embryo model was used to evaluate the activity of Compound 1 to inhibit the growth of human tumor cells in vivo. A single cell suspension of human fibrosarcoma cells (HT 1080), containing 4×10^5 cells in a total volume of 40 μl, was applied to 10 day old chick embryos as described by Brooks, et al (“Brooks, P.C., et al, “Integrin αvβ3 Antagonists Promote Tumor Regression by Inducing Apoptosis of Angiogenic Blood Vessels”, Cell 79:1157-1164 (1994)). Twenty-four hours later 0 to 10 μg of Compound 1 was injected intravenously into the embryos. Following this single administration of compound, control and treated embryos were incubated for a total of 7 days and then sacrificed. Tumors were excised, trimmed free of surrounding CAM tissue, and weighed. Each experimental group contained 10 to 12 chicken embryos. A single dose of 10 μg of Compound 1 reduced tumor weight by approximately 65%.

Urokinase (Abbokinase) = Urokinase (Abbokinase) (Homo sapiens, UniProt P00749); assay: Urokinase chromogenic substrate (S-2444) IC50 assay
Experimental: The buffer used for all assays was HBSA (10 mM HEPES, pH 7.5, 150 mM sodium chloride, 0.1% bovine serum albumin).
The initial velocity of chromogenic substrate hydrolysis was measured by the change in absorbance at 405 nm using a Thermo Max® Kinetic Microplate Reader over a 5 minute period in which less than 5% of the added substrate was utilized.
The assay buffer was HBS (10mM HEPES, 150mM sodium chloride pH 7.4) with 0.1% BSA.

Row | Structure (SMILES) | IC50 (Human rt-PA (Activase)) [nM] | IC50 (human plasmin) [nM] | IC50 (Urokinase (Abbokinase)) [nM] | other results
1 | C[C@H](NC(=O)[C@@H](CO)NS(=O)(=O)CCCc1ccccc1)C(=O)N[C@H](C=O)CCCNC(=N)N [Compound 48, 3-phenylpropylsulfonyl-D-seryl-alanyl-argininal] | > 2500 | 250 to 2500 | < 100 | –
2 | C[C@H](NC(=O)[C@@H](CNC(=O)CCc1ccccc1)NC(=O)OCc1ccccc1)C(=O)N[C@H](C=O)CCCNC(=N)N [Compound 41, N-α-benzyloxycarbonyl-N-β-2-phenylethylcarbonyl-D-2,3-diaminopropionyl-alanyl-argininal] (Cbz-[dDap](Hydrocinnamoyl)-Ala-Arg-aldehyde) | > 2500 | 250 to 2500 | 250 to 2500 | –
3 | CC[C@@H](NC(=O)OCc1ccccc1)C(=O)N[C@@H](C)C(=O)NC(C=O)CCCNC(=N)N (stereo partly shown) [Compound 44] | > 2500 | 250 to 2500 | 250 to 2500 | –
4 | C[C@H](NC(=O)[C@@H](CO)NS(=O)(=O)CCc1ccccc1)C(=O)N[C@H](C=O)CCCNC(=N)N [Compound 47, 2-phenylethylsulfonyl-D-seryl-alanyl-argininal] | > 2500 | 250 to 2500 | < 100 | –
5 | C[C@H](NC(=O)[C@H](NC(=O)OCc1ccccc1)[C@@H](C)O)C(=O)N[C@H](C=O)CCCNC(=N)N [Compound 19, benzyloxycarbonyl-D-allothreonyl-alanyl-argininal] (Cbz-[d(aThr)]-Ala-Arg-aldehyde) | > 2500 | 250 to 2500 | < 100 | –
6 | C[C@H](NC(=O)[C@@H](CO)NC(=O)CCC1CCCCC1)C(=O)N[C@H](C=O)CCCNC(=N)N [Compound 35, 3-cyclohexylpropionyl-D-seryl-alanyl-argininal] | > 2500 | > 2500 | 250 to 2500 | –
7 | N=C(N)NCCC[C@@H](C=O)NC(=O)[C@@H]1C=CCN1C(=O)[C@@H](CO)NC(=O)OCc1ccccc1 [Compound 50, benzyloxycarbonyl-D-seryl-L-3,4-dehydroprolyl-argininal] (Cbz-[dS]-[ΔPro]-Arg-aldehyde) | > 2500 | 100 to 250 | < 100 | –
8 | C[C@H](NC(=O)[C@@H](CO)NS(=O)(=O)/C=C/c1ccccc1)C(=O)N[C@H](C=O)CCCNC(=N)N [Compound 53, trans-β-Styrenesulfonyl-D-seryl-L-alanyl-argininal] | > 2500 | 250 to 2500 | < 100 | –
9 | C=CC[C@H](NC(=O)[C@@H](CO)NC(=O)OCc1ccccc1)C(=O)N[C@H](C=O)CCCNC(=N)N [Compound 52, benzyloxycarbonyl-D-seryl-L-allylglycyl-argininal] (Cbz-[dS]-[AllylGly]-Arg-aldehyde) | > 2500 | 250 to 2500 | 100 to 250 | –

Second part, led by results:

Row | IC50 (Human rt-PA (Activase)) [nM] | IC50 (human plasmin) [nM] | IC50 (Urokinase (Abbokinase)) [nM] | Structure (SMILES) | other results
10 | > 2500 | 250 to 2500 | < 100 | CC(C)COC(=O)N[C@H](CO)C(=O)N[C@@H](C)C(=O)N[C@H](C=O)CCCNC(=N)N [Compound 1, Isobutyloxycarbonyl-D-seryl-L-alanyl-argininal] | Angiogenic Index ([1]; 0.001 μg Compound 1): 22; # of Blood Vessel Branch Points ([1]; 0.001 μg Compound 1 intravenously): 35 +/− 5; Angiogenic Index ([1]; 0.01 μg Compound 1): 8; # of Blood Vessel Branch Points ([1]; 0.01 μg Compound 1 intravenously): 21 +/− 5; Angiogenic Index ([1]; 1.0 μg Compound 1): 2; # of Blood Vessel Branch Points ([1]; 1.0 μg Compound 1 intravenously): 15 +/− 1; inhibition of angiogenesis ([1]; single administration of 1 μg, intravenously): 92%; Tumor wet weight ([2]; 1 μg single intravenous dose): 174 ± 25 mg; Tumor wet weight ([2]; 10 μg single intravenous dose): 97 ± 15 mg; reduction of tumor weight ([2]; single dose of 10 μg): approximately 65%
11 | > 2500 | > 2500 | 100 to 250 | C[C@H](NC(=O)[C@@H](CO)NC(=O)NCc1ccccc1)C(=O)N[C@H](C=O)CCCNC(=N)N [Compound 38, benzylazacarbonyl-D-seryl-alanyl-argininal] ({NHBn-CO}-[dS]-Ala-Arg-aldehyde) | –
12 | > 2500 | 250 to 2500 | < 100 | N=C(N)NCCC[C@@H](C=O)NC(=O)[C@@H]1CCCN1C(=O)[C@@H](CO)NC(=O)OCc1ccccc1 [Compound 11, benzyloxycarbonyl-D-seryl-prolyl-argininal] (Cbz-[dS]-Pro-Arg-aldehyde) | –
13 | > 2500 | 250 to 2500 | – | C[C@H](NC(=O)[C@@H](CO)NCCCc1ccccc1)C(=O)N[C@H](C=O)CCCNC(=N)N [Compound 32, N-α-(3-Phenylpropyl)-D-seryl-alanyl-argininal] | IC50 (Urokinase (Abbokinase); read-out: uPA IC50, 30 minute preincubation, HBSA buffer): < 100 nM
14 | > 2500 | < 100 | 100 to 250 | N=C(N)NCCC[C@@H](C=O)NC(=O)[C@@H]1CCCN1C(=O)[C@@H](CCO)NC(=O)OCc1ccccc1 [Compound 27, benzyloxycarbonyl-D-homoseryl-prolyl-argininal] (Cbz-[d(hSer)]-Pro-Arg-aldehyde) | –
15 | > 2500 | 250 to 2500 | < 100 | C#CC[C@H](NC(=O)[C@@H](CO)NC(=O)OCc1ccccc1)C(=O)N[C@H](C=O)CCCNC(=N)N [Compound 51, benzyloxycarbonyl-D-seryl-L-propargylglycyl-argininal] (Cbz-[dS]-[Pra]-Arg-aldehyde) | –
16 | > 2500 | 100 to 250 | 100 to 250 | C[C@H](NC(=O)[C@@H](CNC(=O)OCc1ccccc1)NC(=O)OCc1ccccc1)C(=O)N[C@H](C=O)CCCNC(=N)N [Compound 42, N-α-N-β-dibenzyloxycarbonyl-D-2,3-diaminopropionyl-alanyl-argininal] (Cbz-[dDap](Cbz)-Ala-Arg-aldehyde) | –
